# Source: patent publication US9938265B2, “1,3,4-thiadiazole compounds and their use in treating cancer” (AstraZeneca AB, priority 2015, dated 2018)
# Like-named read-outs stand apart in the source and are kept apart here.
# Columns and labels:
# GLS1 = GLS1 (Homo sapiens (Human), UniProt O94925); assay: GLS Enzyme Potency Assay (Glutamate Oxidase/AmplexRed coupled assay); assay type: biochemical; settings: 6His tagged GLS protein (amino acids 63-669), glutamine substrate; read-out: Assay a) enz IC50
# Sequence of GLS1 (O94925 63-669): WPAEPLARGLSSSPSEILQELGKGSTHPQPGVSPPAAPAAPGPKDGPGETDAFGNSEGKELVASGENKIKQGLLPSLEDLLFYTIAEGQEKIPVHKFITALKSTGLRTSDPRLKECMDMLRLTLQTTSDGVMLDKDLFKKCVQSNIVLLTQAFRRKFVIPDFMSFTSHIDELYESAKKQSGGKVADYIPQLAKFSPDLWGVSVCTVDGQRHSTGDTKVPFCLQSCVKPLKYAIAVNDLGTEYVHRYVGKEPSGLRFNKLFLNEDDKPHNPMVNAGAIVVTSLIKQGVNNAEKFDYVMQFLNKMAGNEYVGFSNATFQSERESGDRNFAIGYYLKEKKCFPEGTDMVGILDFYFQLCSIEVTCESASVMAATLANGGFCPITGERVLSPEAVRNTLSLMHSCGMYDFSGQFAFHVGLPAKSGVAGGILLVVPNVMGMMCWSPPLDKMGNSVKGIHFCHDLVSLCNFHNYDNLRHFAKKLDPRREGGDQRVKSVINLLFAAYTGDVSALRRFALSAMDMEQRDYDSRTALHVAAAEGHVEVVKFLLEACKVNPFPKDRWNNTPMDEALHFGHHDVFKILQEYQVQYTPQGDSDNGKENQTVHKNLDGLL
# From the text: (§1) The following assays were used to measure the effects of the compounds described herein: a) GLS Enzyme Potency Assay; b) GLS Cell Potency Assay; c) GLS Cell Proliferation Assay. During the description of the assays, generally: • i. The following abbreviations have been used: CO2=Carbon dioxide; DMEM=Dulbecco's Modified Eagle Medium; DMSO=Dimethyl sulphoxide; EDTA=Ethylenediaminetetraacetic acid; EGTA=Ethylene glycol tetraacetic acid; FCS=Foetal calf serum; h=Hour(s); NBS=Non-binding surface; SDS=Sodium dodecyl sulphate; TRIS=Tris(Hydroxymethyl)aminomethane. • ii. IC50 values were calculated using a smart fitting model in Genedata.
# Assay a): GLS Enzyme Potency Assay
# A Glutamate Oxidase/AmplexRed coupled assay was used to measure the ability of compounds to bind to and inhibit the activity of GLS1 in vitro. […] GLS1 was diluted to 2× working concentration and incubated at room temperature to allow the tetrameric/dimeric forms to reach steady state. Assay measurements were performed in buffer comprising 50 mM TRIS pH 7.8, 100 mM NaPO4, pH 7.8, 0.001% v/v Tween20. Purified recombinant GLS1 protein was diluted in assay buffer to 12 nM and pre-incubated at room temperature for 30 minutes. […] DMSO concentration was maintained at 2% by back filling with DMSO solution. 3 μL of diluted GLS1 protein (12 nM) was then dispensed into each well using a BioRaptr automated dispenser (Beckman-Coulter) and incubated for 15 minutes at room temperature. 3 μL of 100 mM glutamine diluted in assay buffer was then added and the reaction incubated at room temperature for 60 minutes. […] An artefact version of the assay where the 6His tagged GLS protein and glutamine were replaced with assay buffer was also used to rule out non specific effects on the assay components.
# NCI-H1703 cells = assay: GLS Cell Proliferation Assay (NCI-H1703 cell proliferation); assay type: cell-based
# From the text: as §1
# Assay c): GLS Cell Proliferation Assay
# The ability of compounds to inhibit cell growth was measured using a 384 well plate NCI-H1703 cell proliferation assay. NCI-H1703 cells were grown in phenol red free RPMI1640, 10% FCS and 2 mM glutamine and seeded at a density of 750 cells per well in 40 μl of growth medium into clear-bottom 384 well assay plates (Corning product code 3712) and incubated for 24 h at 37° C., 5% CO2. Test compounds were prepared by dilution in 100% DMSO to give the correct dose range for 12 point concentration response and an appropriate volume (5-120 nl) dispensed directly into the assay plates containing plated cells. DMSO concentration was maintained at 0.3% by back filling with DMSO solution. Plates were incubated for 5 days at 37° C., 5% CO2, Sytox Green and Saponin added to final concentration of 2 μM and 0.25% respectively and incubated for 6 h prior to analysis. Plates were read on an Acumen eX3 (TTP Labtech) using 488 nm excitation and FITC filter set (500-530 nm) for emission. IC50 values were calculated by curve fitting to max inhibition of day zero growth using GeneData software analysis.
# cellular GLS activity = cellular GLS activity (Homo sapiens (Human), UniProt O94925); assay: GLS Cell Potency Assay (PC3 coupled assay measuring cellular glutamate depletion); assay type: cell-based; settings: PC3 cells, 6 h incubation, glutamate depletion; read-out: Assay b) GLS cell MOA Mean IC50
# Sequence of cellular GLS activity (O94925 73-669): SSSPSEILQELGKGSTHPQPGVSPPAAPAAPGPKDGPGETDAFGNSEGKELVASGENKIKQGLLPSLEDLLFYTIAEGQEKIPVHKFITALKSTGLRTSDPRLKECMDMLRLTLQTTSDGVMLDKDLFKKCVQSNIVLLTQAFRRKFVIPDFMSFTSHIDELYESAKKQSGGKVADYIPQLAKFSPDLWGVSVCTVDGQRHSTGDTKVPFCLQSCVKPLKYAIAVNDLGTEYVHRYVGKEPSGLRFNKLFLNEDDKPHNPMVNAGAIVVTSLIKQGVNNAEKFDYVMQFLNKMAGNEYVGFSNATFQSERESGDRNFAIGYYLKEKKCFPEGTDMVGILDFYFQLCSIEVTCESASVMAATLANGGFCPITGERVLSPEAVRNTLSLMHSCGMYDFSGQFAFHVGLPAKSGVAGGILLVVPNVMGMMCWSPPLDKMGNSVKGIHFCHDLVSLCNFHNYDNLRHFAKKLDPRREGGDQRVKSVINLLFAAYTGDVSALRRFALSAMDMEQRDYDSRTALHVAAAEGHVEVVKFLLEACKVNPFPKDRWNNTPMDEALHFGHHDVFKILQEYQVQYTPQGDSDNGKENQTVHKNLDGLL
# From the text: as §1
# Assay b): GLS Cell Potency Assay
# Compounds were assessed for their potential to inhibit cellular GLS activity by use of a PC3 coupled assay measuring cellular glutamate depletion. […] DMSO concentration was maintained at 0.3% by back filling with DMSO solution. PC3 cells were grown in phenol free DMEM, 10% dialyzed FCS, 2 mM glutamine and following dispersal by trypsinisation were plated at 5.6×10^3 cells per well in 40 μl of growth medium directly into the 384 well assay plates containing dispensed compound. After incubation for 6 h at 37° C., 5% CO2 growth media was aspirated and cells lysed in 15 μl of buffer containing 10 mM TRIS pH7.4, 100 mM NaCl, 1 mM EDTA, 1 mM EGTA, 1 mM NaF, 20 mM Na4P2O7, 2 mM Na3VO4, 1% Triton X-100, 10% glycerol, 0.1% SDS and 0.5% deoxycholate.
# [1] = NCI-H1703 cells, 5 days; read-out: Assay c) Prolif Mean IC50
Compound,IC50 (GLS1) [µM],IC50 (NCI-H1703 cells; [1]) [µM],IC50 (cellular GLS activity) [µM],"IC50 (NCI-H1703 cells; Homo sapiens, NCI-H1703, 120 h, NCI-H1703 cells, 5 days; read-out: Assay c) Prolif Mean IC50) [µM]"
"CO[C@H](C(=O)Nc1nnc(N[C@@H]2CCN(c3ccc(C)nn3)C2)s1)c1ccc(F)cc1 (single isomer, unassigned) [Example 5(a)]",0.155,0.0441,0.00278,–
"CO[C@H](C(=O)Nc1nnc(N[C@@H]2CCN(c3ccc(C)nn3)C2)s1)c1ccccc1 [Example 14, (2S)-2-methoxy-N-[5-[[(3R)-1-(6-methylpyridazin-3-yl)pyrrolidin-3-yl]amino]-1,3,4-thiadiazol-2-yl]-2-phenyl-acetamide]",0.0443,–,0.00104,0.0227
"COC(C(=O)Nc1nnc(N[C@@H]2CCN(c3ccc(F)nn3)C2)s1)c1ccc(F)cc1 (single isomer, unassigned) [Example 20]",0.323,1.27,0.0795,–
"COc1cc(C(OC)C(=O)Nc2nnc(N[C@@H]3CCN(c4ccc(F)nn4)C3)s2)ccc1F (single isomer, unassigned) [Example 24]",0.0713,0.0116,0.00101,–
"COc1ccc(C(OC)C(=O)Nc2nnc(N[C@@H]3CCN(c4ccc(C)nn4)C3)s2)cc1 (stereo partly drawn) [Example 30, 2-methoxy-2-(4-methoxyphenyl)-N-[5-[[(3R)-1-(6-methylpyridazin-3-yl)pyrrolidin-3-yl]amino]-1,3,4-thiadiazol-2-yl]acetamide]",0.119,0.0437,0.00529,–
"CCOC(C(=O)Nc1nnc(N[C@@H]2CCN(c3ccc(C)nn3)C2)s1)c1ccc(OC)cc1 (single isomer, unassigned) [Example 16]",0.0809,0.055,0.00274,–
"COc1ccc(C(OC)C(=O)Nc2nnc(N[C@@H]3CCN(c4ccc(F)nn4)C3)s2)cc1 (single isomer, unassigned) [Example 22]",0.0189,0.0369,0.00245,–
"COC(C(=O)Nc1nnc(N[C@@H]2CCN(c3ccc(F)nn3)C2)s1)c1cccc(OC(F)(F)F)c1 (single isomer, unassigned) [Example 17]",0.0243,0.00174,0.000251,–
"CCOC(C(=O)Nc1nnc(N[C@@H]2CCN(c3ccc(C)nn3)C2)s1)c1ccc(F)cc1 (single isomer, unassigned) [Example 27]",2.38,1.22,0.0722,–
"COc1ccc(C(OC)C(=O)Nc2nnc(N[C@@H]3CCN(c4ccc(F)nn4)C3)s2)cc1 (single isomer, unassigned) [Example 21]",0.223,0.93,0.0537,–
"COC(C(=O)Nc1nnc(N[C@@H]2CCN(c3ccc(F)nn3)C2)s1)c1cccc(OC(F)(F)F)c1 (single isomer, unassigned) [Example 18]",0.0653,0.0168,0.00491,–
"CO[C@H](C(=O)Nc1nnc(N[C@@H]2CCN(c3ccc(C)nn3)C2)s1)c1cccc(OC(F)F)c1 (single isomer, unassigned) [8(b)]",0.643,0.117,0.0221,–
